Laboratory results as given in patent US8049015B2 (Panmira Pharmaceuticals, LLC, priority 2008, dated 2011).

Biological target: T1, human DP2 receptor (Homo sapiens, UniProt Q9Y5Y4)
T1 construct: expressed in transfected cells
T1 sequence (Q9Y5Y4 1-395): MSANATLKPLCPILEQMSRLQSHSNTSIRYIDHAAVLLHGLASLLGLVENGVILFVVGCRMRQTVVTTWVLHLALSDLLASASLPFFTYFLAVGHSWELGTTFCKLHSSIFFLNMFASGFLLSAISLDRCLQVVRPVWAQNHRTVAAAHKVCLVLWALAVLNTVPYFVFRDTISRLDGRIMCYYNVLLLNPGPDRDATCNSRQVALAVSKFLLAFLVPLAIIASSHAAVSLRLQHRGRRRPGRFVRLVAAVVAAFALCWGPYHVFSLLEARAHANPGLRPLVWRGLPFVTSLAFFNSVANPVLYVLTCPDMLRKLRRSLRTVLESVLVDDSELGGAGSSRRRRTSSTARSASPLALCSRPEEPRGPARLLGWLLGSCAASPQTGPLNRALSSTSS
Experiment: DP2/CRTH2 binding assay (radioligand binding with [3H]PGD2)
Conditions: [3H]PGD2 binding, membranes of HEK293 cells expressing recombinant human DP2; read-out: hDP2
Procedure: The ability of a compound to bind to the human DP2 receptor is assessed via a radioligand binding assay using [^3H]PGD2. HEK293 cells stably expressing recombinant human DP2 are resuspended in 10 mM Hepes, 7.4 containing 1 mM DTT, lysed and centrifuged at 75,000×g to pellet the membranes. The membranes are resuspended in 10 mM Hepes, 7.4 containing 1 mM DTT and 10% glycerol to approximately 5 mg protein/ml. Membranes (2-10 μg protein/well) are incubated in 96-well plates with 1 nM [^3H]PGD2 and test compound in Assay Buffer (50 mM Hepes, 10 mM MnCl2, 1 mM EDTA, plus or minus 0.2% human serum albumin, pH 7.4) for 60 minutes at room temperature. The reactions are terminated by rapid filtration through Whatman GF/C glass fibre filter plates. The filter plates were pre-soaked in 0.33% polythylenimine for 30 minutes at room temperature then washed in Wash Buffer (50 mM Hepes, 0.5 M NaCl pH 7.4) prior to harvesting. After harvesting, the filter plates are washed 3 times with 1 ml cold Wash Buffer then dried. Scintillant is then added to the plates and the radioactivity retained on the filters is determined on a Packard TopCount (Perkin Elmer). Specific binding is determined as total radioactive binding minus non-specific binding in the presence of 10 μM PGD2. IC50s were determined using GraphPad prism analysis of drug titration curves.

| IC50 [nM] | Structure (SMILES) |
| --- | --- |
| < 300 | CCN(Cc1cc(C(F)(F)F)ccc1-c1cc(CC(=O)O)c[n+]([O-])c1)C(=O)OCc1ccccc1 [Compound 15, (5-{2-[(N-Benzyloxycarbonyl-N-ethyl-amino)-methyl]-4-trifluoromethyl-phenyl}-1-oxy-pyridin-3-yl)-acetic acid] |
| < 300 | CCN(Cc1cc(C(F)(F)F)ccc1-c1cncc(CC(=O)O)c1)C(=O)Cc1ccccc1 [Compound 16, (5-{2-[(N-Ethyl-N-phenylacetyl-amino)-methyl]-4-trifluoromethyl-phenyl}-pyridin-3-yl)-acetic acid] |
| < 300 | O=C(O)Cc1cncc(-c2ccc(C(F)(F)F)cc2CN(Cc2ccccc2)C(=O)C2CC2)c1 [Compound 17, (5-{2-[(N-Benzyl-N-cyclopropanecarbonyl-amino)-methyl]-4-trifluoromethyl-phenyl}-pyridin-3-yl)-acetic acid] |
| < 300 | CC(=O)N(Cc1ccccc1)Cc1cc(C(F)(F)F)ccc1-c1cncc(CC(=O)O)c1 [Compound 18, (5-{2-[(N-Acetyl-N-benzyl-amino)-methyl]-4-trifluoromethyl-phenyl}-pyridin-3-yl)-acetic acid] |
| < 300 | CC(=O)N(Cc1ccccc1)Cc1cc(C(F)(F)F)ccc1-c1cc(CC(=O)O)cnc1Cl [Compound 19, (5-{2-[(N-Acetyl-N-benzyl-amino)-methyl]-4-trifluoromethyl-phenyl}-6-chloro-pyridin-3-yl)-acetic acid] |
| < 300 | CC(=O)N(Cc1ccccc1)Cc1cc(C(F)(F)F)ccc1-c1cnc(Cl)c(CC(=O)O)c1 [Compound 20, (5-{2-[(N-Acetyl-N-benzyl-amino)-methyl]-4-trifluoromethyl-phenyl}-2-chloro-pyridin-3-yl)-acetic acid] |
| < 300 | CCN(Cc1cc(SC)ccc1-c1cncc(CC(=O)O)c1)C(=O)C1CC1 [Compound 21, (5-{2-[(N-Cyclopropanecarbonyl-N-ethyl-amino)-methyl]-4-methylsulfanyl-phenyl}-pyridin-3-yl)-acetic acid] |
| < 300 | CCN(Cc1cc(SC(C)(C)C)ccc1-c1cncc(CC(=O)O)c1)C(=O)C1CC1 [Compound 22, (5-{4-tert-Butylsulfanyl-2-[(N-cyclopropanecarbonyl-N-ethyl-amino)-methyl]-phenyl}-pyridin-3-yl)-acetic acid] |
| 300 to 1000 | CCN(Cc1cc(F)ccc1-c1cncc(CC(=O)O)c1)C(=O)C1CC1 [Compound 23, (5-{2-[(N-Cyclopropanecarbonyl-N-ethyl-amino)-methyl]-4-fluoro-phenyl}-pyridin-3-yl)-acetic acid] |
| < 300 | CCN(Cc1cc(S)ccc1-c1cncc(CC(=O)O)c1)C(=O)C1CC1 [Compound 24, (5-{2-[(N-Cyclopropanecarbonyl-N-ethyl-amino)-methyl]-4-mercapto-phenyl}-pyridin-3-yl)-acetic acid] |
| < 300 | CCN(Cc1cc(C(F)(F)F)ccc1-c1cncc(CC(=O)O)c1)C(=O)CCc1ccccc1 [Compound 25, [5-(2-{[N-Ethyl-N-(3-phenyl-propionyl)-amino]-methyl}-4-trifluoromethyl-phenyl)-pyridin-3-yl]-acetic acid] |
| < 300 | CC(=O)N(Cc1ccccc1)Cc1cc(C(F)(F)F)ccc1-c1cc(CC(=O)O)cnc1O [Compound 26, (5-{2-[(N-Acetyl-N-benzyl-amino)-methyl]-4-trifluoromethyl-phenyl}-6-hydroxy-pyridin-3-yl)-acetic acid] |
| < 300 | CCN(Cc1cc(C(F)(F)F)ccc1-c1cc(CC(=O)O)cnc1OC)C(=O)NCc1ccccc1 [Compound 27, {5-[2-(3-Benzyl-1-ethyl-ureidomethyl)-4-trifluoromethyl-phenyl]-6-methoxy-pyridin-3-yl}-acetic acid] |
| < 300 | COc1ncc(CC(=O)O)cc1-c1ccc(C(F)(F)F)cc1CN(Cc1ccccc1)C(C)=O [Compound 28, (5-{2-[(N-Acetyl-N-benzyl-amino)-methyl]-4-trifluoromethyl-phenyl}-6-methoxy-pyridin-3-yl)-acetic acid] |
| 300 to 1000 | CCN(Cc1cc(C(F)(F)F)ccc1-c1cncc(CC(=O)O)c1)C(=O)c1cnccn1 [Compound 29, [5-(2-{[N-Ethyl-N-(pyrazine-2-carbonyl)-amino]-methyl}-4-trifluoromethyl-phenyl)-pyridin-3-yl]-acetic acid] |
| < 300 | CCN(Cc1cc(C(F)(F)F)ccc1-c1cncc(CC(=O)O)c1)C(=O)Cc1ccc(Cl)nc1 [Compound 31, {5-[2-({N-[2-(6-Chloro-pyridin-3-yl)-acetyl]-N-ethyl-amino}-methyl)-4-trifluoromethyl-phenyl]-pyridin-3-yl}-acetic acid] |
| < 300 | CCOc1cc(OCC)nc(CC(=O)N(CC)Cc2cc(C(F)(F)F)ccc2-c2cncc(CC(=O)O)c2)n1 [Compound 32, {5-[2-({N-[2-(4,6-Diethoxy-pyrimidin-2-yl)-acetyl]-N-ethyl-amino}-methyl)-4-trifluoromethyl-phenyl]-pyridin-3-yl}-acetic acid] |
| < 300 | CCN(Cc1cc(C(F)(F)F)ccc1-c1cncc(CC(=O)O)c1)C(=O)Cc1ccccn1 [Compound 33, [5-(2-{[N-Ethyl-N-(2-pyridin-2-yl-acetyl)-amino]-methyl}-4-trifluoromethyl-phenyl)-pyridin-3-yl]-acetic acid] |
| 300 to 1000 | CCN(Cc1cc(C(F)(F)F)ccc1-c1cncc(CC(=O)O)c1)C(=O)COC [Compound 34, [5-(2-{[N-Ethyl-N-(2-methoxy-acetyl)-amino]-methyl}-4-trifluoromethyl-phenyl)-pyridin-3-yl]-acetic acid] |
| 300 to 1000 | CCOCC(=O)N(CC)Cc1cc(C(F)(F)F)ccc1-c1cncc(CC(=O)O)c1 [Compound 35, [5-(2-{[N-(2-Ethoxy-acetyl)-N-ethyl-amino]-methyl}-4-trifluoromethyl-phenyl)-pyridin-3-yl]-acetic acid] |
| 300 to 1000 | CCN(Cc1cc(C(F)(F)F)ccc1-c1cncc(CC(=O)O)c1)C(=O)CCc1cccnc1 [Compound 36, [5-(2-{[N-Ethyl-N-(3-pyridin-3-yl-propionyl)-amino]-methyl}-4-trifluoromethyl-phenyl)-pyridin-3-yl]-acetic acid] |
| < 300 | CCN(Cc1cc(C(F)(F)F)ccc1-c1cncc(CC(=O)O)c1)C(=O)Cc1ccc(C)nc1 [Compound 37, {5-[2-({N-Ethyl-N-[2-(6-methyl-pyridin-3-yl)-acetyl]-amino}-methyl)-4-trifluoromethyl-phenyl]-pyridin-3-yl}-acetic acid] |
| 300 to 1000 | CCN(Cc1cc(C(F)(F)F)ccc1-c1cc(CC(=O)O)cnc1O)C(=O)C1CC1 [Compound 38, (5-{2-[(N-Cyclopropanecarbonyl-N-ethyl-amino)-methyl]-4-trifluoromethyl-phenyl}-6-hydroxy-pyridin-3-yl)-acetic acid] |
| < 300 | CCN(Cc1cc(C(F)(F)F)ccc1-c1cc(CC(=O)O)cnc1OCC(F)(F)F)C(=O)C1CC1 [Compound 39, [5-{2-[(N-Cyclopropanecarbonyl-N-ethyl-amino)-methyl]-4-trifluoromethyl-phenyl}-6-(2,2,2-trifluoro-ethoxy)-pyridin-3-yl]-acetic acid] |
| < 300 | CCN(Cc1cc(C(F)(F)F)ccc1-c1cc(CC(=O)O)cnc1OC)C(=O)OCc1ccccc1 [Compound 40, (5-{2-[(N-Benzyloxycarbonyl-N-ethyl-amino)-methyl]-4-trifluoromethyl-phenyl}-6-methoxy-pyridin-3-yl)-acetic acid] |
| 300 to 1000 | CCN(Cc1cc(C(F)(F)F)ccc1-c1cc(CC(=O)O)cnc1OC)C(C)=O [Compound 41, (5-{2-[(N-Acetyl-N-ethyl-amino)-methyl]-4-trifluoromethyl-phenyl}-6-methoxy-pyridin-3-yl)-acetic acid] |
| < 300 | CCN(Cc1cc(C(F)(F)F)ccc1-c1cc(CC(=O)O)cnc1OC)C(=O)COC [Compound 42, [5-(2-{[N-Ethyl-N-(2-methoxy-acetyl)-amino]-methyl}-4-trifluoromethyl-phenyl)-6-methoxy-pyridin-3-yl]-acetic acid] |
| < 300 | CCOC(=O)N(CC)Cc1cc(C(F)(F)F)ccc1-c1cc(CC(=O)O)cnc1OC [Compound 43, (5-{2-[(N-Ethoxycarbonyl-N-ethyl-amino)-methyl]-4-trifluoromethyl-phenyl}-6-methoxy-pyridin-3-yl)-acetic acid] |
| 300 to 1000 | O=C(O)CCn1c2c(c3ccccc31)C[C@H](NS(=O)(=O)c1ccc(F)cc1)CC2 [Ramatroban, reference compound] |

| Structure (SMILES) | IC50 [nM] |
| --- | --- |
| CCN(Cc1cc(C(F)(F)F)ccc1-c1cncc(CC(=O)O)c1)C(=O)c1cc(OC)nc(OC)n1 [Compound 30] | > 1000 |
